The source of these data is patent publication US20250295798A1, “LIGAND-DRUG CONJUGATE OF EXATECAN ANALOGUE, AND MEDICAL USE THEREOF” (BeiGene Switzerland GmbH, priority 2022, published 2025).

Format in all cases: cell-based, human
The subject of one test is MDA-MB-453. The test is described as follows: Compounds cellular killing in MDA-MB-453. Particulars: for EC50 / Emax: Homo sapiens; for killing activity compared with 1-B: MDA-MB-453, FIG. 1. As to the method:
Seeding cells MDA-MB-453 (2E3/well) into 96-well plate (Greiner: 655090), 100 ul/well. Incubation at 37° C., 5% CO2, overnight.
Adding the fresh growth-medium containing the varying concentrations of compounds, 50 ul/well.
Incubation at 37° C., 5% CO2, 6 days.
The cell viability detected by Cell Titer-Glo (Promega, G7573). Add 70 µL/well of CellTiter-Glo® Reagent in each well.
Allow the plates to incubate at room temperature for 10 minutes to stabilize luminescent signal.
Analyze with Microplate Reader.

For a further test, the system named is A375. The test is described as follows: Compounds cellular killing in A375. Particulars: Homo sapiens, A-375; A375, 6 days, Cell Titer-Glo. Put shortly:
(§1)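 A375 (1E3/well) or Calu-6 (2E3/well) cells were seeded overnight, then exposed to varying compound concentrations for 6 days at 37 °C, 5% CO2. Viability was read by CellTiter-Glo luminescence.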
(In general: ATP-based viability assays read luminescence as a measure of living cells.)

The next test concerns Calu-6. The test is described as follows: Compounds cellular killing in Calu-6. The settings on record: Homo sapiens, Calu-6, […], Calu-6, 6 days, Cell Titer-Glo. Put shortly:
as §1

Where two headings read alike, the source gives them in different places.

In the test on MDA-MB-453 (MDA-MB-453, […]), `CC[C@@]1(O)C(=O)OCc2c1cc1n(c2=O)Cc2c-1nc1cc(F)c(C)c3c1c2[C@@H](N1CCNCC1)CC3` [Example 1-6, (1S,9S)-9-ethyl-5-fluoro-9-hydroxy-4-methyl-1-(piperazin-1-yl)-1,2,3,9,12,15-hexahydro-10H,13H-benzo[de]pyrano[3′,4′:6,7]indolizino[1,2-b]quinoline-10,13-dione] returned an EC50 of 3.3 nM and an Emax of 93.4%. The “killing activity compared with 1-B” value in the test on MDA-MB-453 was “less potent than 1-B”.

Take `CC[C@@]1(O)C(=O)OCc2c1cc1n(c2=O)Cc2c-1nc1cc(F)c(C)c3c1c2[C@@H](N1CCN(C)CC1)CC3` [Example 1-7, (1S,9S)-9-ethyl-5-fluoro-9-hydroxy-4-methyl-1-(4-methylpiperazin-1-yl)-1,2,3,9,12,15-hexahydro-10H,13H-benzo[de]pyrano[3′,4′:6,7]indolizino[1,2-b]quinoline-10,13-dione]: in the test with MDA-MB-453 (MDA-MB-453, […]), the EC50 turned out to be 1.2 nM and the Emax is 96.8%. Further, the “killing activity compared with 1-B” value in the test with MDA-MB-453 is listed as “comparable killing activity to 1-B”.

With `CC[C@@]1(O)C(=O)OCc2c1cc1n(c2=O)Cc2c-1nc1cc(F)c(C)c3c1c2[C@@H](N)CC3` [Example 1-B, reference compound], the Emax with A375 was 100%; in the test on MDA-MB-453 (MDA-MB-453, 6 days, Cell Titer-Glo, read-out: Emax (%)) it was 99.4%; with Calu-6, 98.4%. Moreover, the EC50 in the test with MDA-MB-453 (MDA-MB-453, 6 days, Cell Titer-Glo, read-out: EC50) was 0.9 nM.

Usually EC50 stands for the midpoint of the concentration-response curve. For orientation: Emax means the size of the effect at its maximum, as opposed to the concentration needed.
